Laboratory results reported in patent US5763439A, “Pyridazinone derivatives or their salts, processes for their production, and anti-shock agents containing them” (Ishihara Sangyo Kaisha Ltd., priority 1993, dated 1998).

Legend:
[1] = test system: enteric hemorrhage of each rat; assay: Test Example 1: inhibition of enteric hemorrhage induced by intravenous lipopolysaccharide (E. coli) in rats; format: in vivo, SD male rats; details: ip, 30 min before LPS 10 mg/kg i.v., 1 h after LPS, read-out: Inhibition rate; for inhibition in vivo at 25 mg/kg: 25 mg/kg i.p.; for inhibition in vivo at 12.5 mg/kg: 12.5 mg/kg i.p.; for inhibition in vivo at 50 mg/kg: 50 mg/kg i.p.
Method: A drug having a test compound dissolved in the form of its Na^+ salt or Cl^- salt in saline or suspended in saline containing 0.5% by weight of carboxymethyl cellulose (manufactured by Nakalai Tesque K. K., hereinafter referred to simply as CMC), was intraperitonially injected to SD male rats of seven weeks old. […] One hour after the injection of the lipopolysaccharide, enteric hemorrhage of each rat was inspected, and the degree of hemorrhage was evaluated by the following ratings:
(§1) 2: Slight subepithelial congestion
(§2) 4: Subepithelial congestion over a wide range and slight submucous congestion
6: Submucous congestion over a wide range, flow out of blood from submucous tissues and necrosis
For the control, the test was conducted in the same manner except that no test compound was added.
The inhibition rate was obtained by the following formula.
(§3) Inhibition rate (%)=(A-B)/A×100
(§4) B: rating of a rat administered with a test compound

[2] = Test Example 2: Acute Toxicity; details: mouse, in vivo, ip, DDY male mice, five mice per group, read-out: 50% lethal dose LD50
Method: Using DDY male mice of five weeks old, each group consisted of five mice. A test compound was suspended in saline containing 0.5% by weight of CMC and intraperitonially injected at a dose of 0.1 ml/10 g. 24 hours after the injection, survival or death was observed, and the number of death/the number of tested animals was obtained, and the 50% lethal dose LD50 was estimated, whereby LD50 of each of Compound Nos. 4, 9, 10, 15, 21, 25, 30, 33, 37, 44, 47, 58, 60 and 67 was at least 100 mg/kg.

DDY male mice = assay: Test Example 4: survival of mice after intravenous platelet-activating factor (PAF); format: in vivo; details: 100 mg/kg i.p. 1 h before PAF (10 μg/ml, 15 ml/kg i.v.); 1 h after PAF; control 0% (Nos. 21, 71, 78) or 14% (Nos. 22, 47)
Method: A drug having a test compound dissolved in the form of its Na^+ salt or or Cl^- salt in saline or suspended in saline containing 0.5% by weight of CMC, was intraperitonially injected to DDY male mice of five weeks old so that the dose would be 100 mg/kg. One hour after the injection of the drug, a solution (containing 1% by weight of dimethylsulfoxide) having a platelet-activating factor (PAF) dissolved in saline to a concentration of 10 μg/ml, was intravenously injected into the tail vein of each mouse in an amount of 15 ml/kg.
One hour after the injection of PAF, survival or death of each mouse was observed, and the survival rate was obtained by the following formula, whereby with Compound Nos. 21, 47, 71 and 78, the survival rate was 100%, and with Compound No. 22, the survival rate was 80%.
Further, for the control, the test was conducted in the same manner except that no test compound was added, whereby with each control corresponding to the test group for each of Compound Nos. 21, 71 and 78, the survival rate was 0%, and in the case of Compound Nos. 22 and 47, the survival rate of the control was 14%.
(§5) Survival rate (%)=(number of survived animals/number of tested

[3] = test system: enteric hemorrhage of each rat; assay: Test Example 5: inhibition of enteric hemorrhage induced by intravenous PAF in rats; format: in vivo, SD male rats; details: 12.5 mg/kg i.p. 30 min before PAF (10 μg/ml, 1 ml/kg i.v.); 1 h after PAF
Method: A drug having a test compound dissolved in the form of its Na^+ salt or or Cl^- salt in saline or suspended in saline containing 0.5% by weight of CMC, was intraperitonially injected to SD male rats of seven weeks old so that the dose of the test compound would be 12.5 mg/kg. 30 minutes after the injection of the drug, a solution (containing 1% by weight of dimethylsulfoxide) having PAF dissolved in saline to a concentration of 10 μg/ml, was intravenously injected into the tail vein of each rat in an amount of 1 ml/kg.
One hour after the injection of PAF, enteric hemorrhage of each rat was inspected, and the degree of hemorrhage was evaluated by the following ratings:
as §1, §2
6: Submucous congestion over a wide range, flow out of blood from the submucous tissues and necrosis
as §3, §4

SD male rats = assay: Test Example 3: survival of rats after intravenous lipopolysaccharide (E. coli); format: in vivo; details: 50 mg/kg i.p. 30 min before and again 3 h after LPS 10 mg/kg i.v.; 48 h; control 0%
Method: A drug having a test compound suspended in saline containing 0.5% by weight of CMC, was intraperitonially administered to SD male rats of seven weeks old so that the dose would be 50 mg/kg. 30 minutes after the injection of the drug, lipopolysaccharide derived from E. coli (manufactured by Difco Company, Product No. 0127:B8) was intravenously injected into the tail vein of each rat so that the dose would be 10 mg/kg. Three hours after the injection of the lipopolysaccharide, the drug was again intraperitonially administered in the same amount.
as §5

| Structure (SMILES) | inhibition in vivo at 12.5 mg/kg [1] [%] | inhibition in vivo at 50 mg/kg [1] [%] | LD50 at 24 h [2] [mg/kg] | also measured |
| --- | --- | --- | --- | --- |
| Cc1c(NC(=O)c2ccncc2)cnn(C(C)(C)C)c1=O [Compound No. 1, 2-tert-butyl-4-methyl-5-(4-pyridylcarbonylamino)pyridazin-3-(2H)-one] |  |  |  | inhibition in vivo at 25 mg/kg [1]: 96% |
| CC(C)(C)n1ncc(NCc2ccncc2)c(C=NCc2ccncc2)c1=O [Compound No. 2, 2-tert-butyl-5-(4-pyridylmethylamino)-4-(4-pyridylmethyliminomethylidenyl)pyridazin-3-(2H)-one] | 75 |  |  | inhibition in vivo at 25 mg/kg [1]: 98% |
| CSc1c(NCc2ccncc2)cnn(C(C)(C)C)c1=O [Compound No. 7, 2-tert-butyl-4-methylthio-5-(4-pyridylmethylamino)pyridazin-3-(2H)-one] | 78 | 100 |  |  |
| C[S+]([O-])c1c(NCc2ccncc2)cnn(C(C)(C)C)c1=O (stereo not shown) [Compound No. 8, 2-tert-butyl-4-methanesulfinyl-5-(4-pyridylmethylamino)pyridazin-3-(2H)-one] | 72 |  |  |  |
| CC(C)(C)n1ncc(NCc2ccncc2)c(S(C)(=O)=O)c1=O [Compound No. 9, 2-tert-butyl-4-methanesulfonyl-5-(4-pyridylmethylamino)pyridazin-3-(2H)-one] |  | 43 | ≥ 100 |  |
| CC(C)(C)n1ncc(NCc2ccncc2)c(N)c1=O [Compound No. 10, 4-amino-2-tert-butyl-5-(4-pyridylmethylamino)pyridazin-3-(2H)-one] | 50 | 94 | ≥ 100 |  |
| CON=Cc1c(NCc2ccncc2)cnn(C(C)(C)C)c1=O [Compound No. 16, 2-tert-butyl-5-(4-pyridylmethylamino)-4-methoxyiminomethylidenylpyridazin-3-(2H)-one] |  |  |  | inhibition in vivo at 100 mg/kg ([1]; 100 mg/kg i.p.): 100% |
| CC(C)(C)n1ncc(NCc2ccncc2)c(C#N)c1=O [Compound No. 21, 2-tert-butyl-4-cyano-5-(4-pyridylmethylamino)pyridazin-3-(2H)-one] | 65 | 100 | ≥ 100 | Survival rate (DDY male mice): 100%; inhibition in vivo at 25 mg/kg [1]: 96% |
| COC(=O)c1c(NCc2ccncc2)cnn(C(C)(C)C)c1=O [Compound No. 22, 2-tert-butyl-4-methoxycarbonyl-5-(4-pyridylmethylamino)pyridazin-3-(2H)-one] | 41 |  |  | Survival rate (DDY male mice): 80%; inhibition in vivo at 25 mg/kg [1]: 100% |
| CC(C)(C)n1ncc(NCc2ccncc2)c(C=O)c1=O [Compound No. 24, 2-tert-butyl-4-formyl-5-(4-pyridylmethylamino) pyridazin-3-(2H)-one] |  | 100 |  |  |
| CCC(=O)Nc1c(NCc2ccncc2)cnn(C(C)(C)C)c1=O [Compound No. 28, 2-tert-butyl-4-propionylamide-5-(4-pyridylmethylamino)pyridazin-3-(2H)-one] | 42 | 83 |  |  |
| CC(C)(C)n1ncc(NCc2ccncc2)c(N(S(C)(=O)=O)S(C)(=O)=O)c1=O [Compound No. 30, 2-tert-butyl-4-N,N-bis(methanesulfonyl)amino-5-(4-pyridylmethylamino)pyridazin-3-(2H)-one] |  |  | ≥ 100 |  |
| CC1CCOC(c2c(NCc3ccncc3)cnn(C(C)(C)C)c2=O)O1 (stereo not shown) [Compound No. 44, 2-tert-butyl-4-(4-methyl-1,3-dioxan-2-yl)-5-(4-pyridylmethylamino)pyridazin-3-(2H)-one] | 77 |  | ≥ 100 |  |
| CCn1ncc(NCc2ccncc2)c(C#N)c1=O [Compound No. 47, 4-cyano-2-ethyl-5-(4-pyridylmethylamino)pyridazin-3-(2H)-one] | 75 |  | ≥ 100 | Survival rate (DDY male mice): 100% |
| CC(=O)N(C)c1c(NCc2ccncc2)cnn(C)c1=O [Compound No. 69, 2-methyl-4-(N-methyl)acetylamino-5-(4-pyridylmethylamino)pyridazin-3-(2H)-one] | 78 |  |  | Inhibition rate [3]: 100% |
| Cn1ncc(NCc2ccncc2)c(CO)c1=O [Compound No. 70, 4-hydroxymethyl-2-methyl-5-(4-pyridylmethylamino)pyridazin-3-(2H)-one] | 72 |  |  | Survival rate (SD male rats): 50% |
| COCc1c(N(C)Cc2ccncc2)cnn(C)c1=O [Compound No. 73, 4-methoxymethyl-2-methyl-5-(N-methyl-4-pyridylmethylamino)pyridazin-3-(2H)-one] | 76 |  |  | Survival rate (SD male rats): 75%; Inhibition rate [3]: 92% |
| COCc1c(NCc2ccncc2)cnn(C)c1=O [Compound No. 105, 4-methoxymethyl-2-methyl-5-(4-pyridylmethylamino)pyridazin-3-(2H)-one] | 92 |  |  |  |
